Experimental data taken from US20260055079A1, “PHTHALAZINONE COMPOUNDS AS PARP7 INHIBITORS” (AZKARRA THERAPEUTICS, INC., priority 2022, published 2026).
pIC50: −log10 of the molar value. Like-named read-outs stand apart in the source and are kept apart here.

How the values were obtained:
His-GST-PARP7 = His-GST-PARP7 (Homo sapiens (Human), UniProt Q7Z3E1); assay: PARP7 biochemical assay; details: read-out: PARP7 IC50
[1] = tested on: NCI-H1373 (human lung adenocarcinoma) cells; assay: Cell proliferation assay (CellTiter-Glo), NCI-H1373; assay type: cell-based; details: Homo sapiens, NCI-H1373, 144 h, read-out: NCI-H1373 GI50

Sequence of His-GST-PARP7 (Q7Z3E1 whole entry): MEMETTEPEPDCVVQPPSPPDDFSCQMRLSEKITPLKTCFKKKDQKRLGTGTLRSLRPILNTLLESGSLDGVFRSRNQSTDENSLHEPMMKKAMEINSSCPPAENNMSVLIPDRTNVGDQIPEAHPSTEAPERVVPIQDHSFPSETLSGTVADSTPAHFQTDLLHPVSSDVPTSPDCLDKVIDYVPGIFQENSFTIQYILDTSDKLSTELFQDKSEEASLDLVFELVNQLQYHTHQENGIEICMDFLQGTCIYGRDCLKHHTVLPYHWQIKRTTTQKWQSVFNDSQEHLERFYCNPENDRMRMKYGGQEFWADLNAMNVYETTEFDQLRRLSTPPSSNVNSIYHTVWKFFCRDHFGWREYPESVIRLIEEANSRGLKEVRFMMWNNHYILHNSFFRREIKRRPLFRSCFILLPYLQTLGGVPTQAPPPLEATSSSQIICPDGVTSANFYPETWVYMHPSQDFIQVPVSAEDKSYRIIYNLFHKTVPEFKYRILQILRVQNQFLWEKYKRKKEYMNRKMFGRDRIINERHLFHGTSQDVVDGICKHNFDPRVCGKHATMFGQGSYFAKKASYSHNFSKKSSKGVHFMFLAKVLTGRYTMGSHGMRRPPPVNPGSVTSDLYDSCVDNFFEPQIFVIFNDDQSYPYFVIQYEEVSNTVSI

SMILES | pIC50 (His-GST-PARP7) | GI50 ([1]; 6 days, CellTiter-Glo) | GI50 [1]
O=C(c1cc(Cc2n[nH]c(=O)c3ccc(OC4CCC4)cc23)ccc1F)N1CCN(c2ccc(O)cn2)CC1 [Example 140, 6-cyclobutoxy-4-(4-fluoro-3-(4-(5-hydroxypyridin-2-yl)piperazine-1-carbonyl)benzyl)phthalazin-1(2H)-one] | > 7.30 | 1000 to 5000 nM | –
CC#Cc1ccc2c(=O)[nH]nc(Cc3ccc(F)c(C(=O)N4CCN(c5ccc(C#N)cn5)C(=O)C4(C)C)c3)c2c1 [Example 71, 6-(4-(2-Fluoro-5-((4-oxo-7-(prop-1-yn-1-yl)-3,4-dihydrophthalazin-1-yl)methyl)benzoyl)-3,3-dimethyl-2-oxopiperazin-1-yl)nicotinonitrile] | > 7.30 | 1000 to 5000 nM | –
CC#Cc1ccc2c(=O)[nH]nc(Cc3ccc(F)c(C(=O)N4CC(N(C)c5cc(C#N)ccn5)C4)c3)c2c1 [Example 69] | < 5.70 | > 5000 nM | –
N#Cc1ccc(N2CCN(C(=O)c3cccc(Cc4n[nH]c(=O)c5c(F)cccc45)c3)CC2)nc1 [Example 88, 6-(4-(3-((5-Fluoro-4-oxo-3,4-dihydrophthalazin-1-yl)methyl)benzoyl)piperazin-1-yl)nicotinonitrile] | > 7.30 | 100 to 1000 nM | –
CC#Cc1ccc2c(=O)[nH]nc(Cc3ccc(F)c(C(=O)N4C[C@H]5C[C@@H]4CN5c4ccc(C#N)cn4)c3)c2c1 [Example 66, 6-((1R,4R)-5-(2-Fluoro-5-((4-oxo-7-(prop-1-ynyl)-3,4-dihydrophthalazin-1-yl)methyl)benzoyl)-2,5-diazabicyclo[2.2.1]heptan-2-yl)nicotinonitrile] | > 7.30 | 1000 to 5000 nM | –
CC#Cc1ccc2c(=O)[nH]nc(Cc3ccc(F)c(C(=O)N4CCN(C(=O)CC#N)CC4)c3)c2c1 [Example 58, 3-(4-(2-Fluoro-5-((4-oxo-7-(prop-1-ynyl)-3,4-dihydrophthalazin-1-yl)methyl)benzoyl)piperazin-1-yl)-3-oxopropanenitrile] | > 7.30 | > 5000 nM | –
N#Cc1ccc(N2CCN(C(=O)c3cc(Oc4n[nH]c(=O)c5ccccc45)ccc3F)CC2)nc1 [Example 190, 6-(4-(2-fluoro-5-((4-oxo-3,4-dihydrophthalazin-1-yl)oxy)benzoyl)piperazin-1-yl)nicotinonitrile] | 6.30 to 7.00 | 1000 to 5000 nM | –
CC#Cc1ccc2c(=O)[nH]nc(Cc3ccc(F)c(C(=O)NCc4nnc(C(F)(F)F)o4)c3)c2c1 [Example 199, 2-Fluoro-5-((4-oxo-7-(prop-1-ynyl)-3,4-dihydrophthalazin-1-yl)methyl)-N-((5-(trifluoromethyl)-1,3,4-oxadiazol-2-yl)methyl)benzamide] | < 5.70 | 1000 to 5000 nM | –
CC#CCOc1ccc2c(=O)[nH]nc(Cc3ccc(F)c(C(=O)N4CCN(c5ccc(C#N)cn5)CC4)c3)c2c1 [Example 19, 6-(4-(5-((7-(But-2-ynyloxy)-4-oxo-3,4-dihydrophthalazin-1-yl)methyl)-2-fluorobenzoyl)piperazin-1-yl)nicotinonitrile] | > 7.30 | 100 to 1000 nM | –
CC#Cc1ccc2c(=O)[nH]nc(C(C)OCCC(=O)N3CCN(c4ncc(C(F)(F)F)cn4)CC3)c2c1 (centres unmarked) [Example 192, 4-(1-(3-Oxo-3-(4-(5-(trifluoromethyl)pyrimidin-2-yl)piperazin-1-yl)propoxy)ethyl)-6-(prop-1-ynyl)phthalazin-1(2H)-one] | > 7.30 | 100 to 1000 nM | –
C#CCNc1ccc2c(=O)[nH]nc(Cc3ccc(F)c(C(=O)N4CCN(c5ccc(C#N)cn5)CC4)c3)c2c1 [Example 15, 6-(4-(2-Fluoro-5-((4-oxo-7-(prop-2-ynylamino)-3,4-dihydrophthalazin-1-yl)methyl)benzoyl)piperazin-1-yl)nicotinonitrile] | > 7.30 | 1000 to 5000 nM | –
C#CCN(C)c1ccc2c(=O)[nH]nc(Cc3ccc(F)c(C(=O)N4CCN(c5ccc(C#N)cn5)CC4)c3)c2c1 [Example 17, 6-(4-(2-Fluoro-5-((7-(methyl(prop-2-ynyl)amino)-4-oxo-3,4-dihydrophthalazin-1-yl)methyl)benzoyl)piperazin-1-yl)nicotinonitrile] | > 7.30 | 1000 to 5000 nM | –
CC#Cc1ccc2c(=O)[nH]nc(Cc3ccc(F)c(C(=O)N4CCC(F)(c5ccc(C#N)cn5)CC4)c3)c2c1 [Example 67, 6-(4-Fluoro-1-(2-fluoro-5-((4-oxo-7-(prop-1-yn-1-yl)-3,4-dihydrophthalazin-1-yl)methyl)benzoyl)piperidin-4-yl)nicotinonitrile] | 7.00 to 7.30 | 1000 to 5000 nM | –
N#Cc1ccc(N2CCN(C(=O)c3cc(Cc4n[nH]c(=O)c5ccc(NC6CC6)cc45)ccc3F)CC2)nc1 [Example 12, 6-(4-(5-((7-(Cyclopropylamino)-4-oxo-3,4-dihydrophthalazin-1-yl)methyl)-2-fluorobenzoyl)piperazin-1-yl)nicotinonitrile] | > 7.30 | 100 to 1000 nM | –
CC#Cc1ccc2c(=O)[nH]nc(Cc3ccc(F)c(C(=O)N4CC5(C4)CN(c4ccc(C#N)cn4)C5)c3)c2c1 [Example 60, 6-(6-(2-Fluoro-5-((4-oxo-7-(prop-1-yn-1-yl)-3,4-dihydrophthalazin-1-yl)methyl)benzoyl)-2,6-diazaspiro[3.3]heptan-2-yl)nicotinonitrile] | > 7.30 | 1000 to 5000 nM | –
CC#Cc1cc2c(Cc3ccc(F)c(C(=O)N4CCN(c5ccc(C#N)cn5)CC4)c3)n[nH]c(=O)c2cc1C [Example 83, 6-(4-(2-Fluoro-5-((6-methyl-4-oxo-7-(prop-1-yn-1-yl)-3,4-dihydrophthalazin-1-yl)methyl)benzoyl)piperazin-1-yl)nicotinonitrile] | > 7.30 | 100 to 1000 nM | –
N#Cc1ccc(N2CCN(C(=O)c3cc(Cc4n[nH]c(=O)c5ccc(OC(F)F)cc45)ccc3F)CC2)nc1 [Example 21, 6-(4-(5-((7-(Difluoromethoxy)-4-oxo-3,4-dihydrophthalazin-1-yl)methyl)-2-fluorobenzoyl)piperazin-1-yl)nicotinonitrile] | > 7.30 | – | 100 to 1000 nM
N#Cc1ccc(N2CCN(C(=O)c3cc(Cc4n[nH]c(=O)c5ccc(NC6CCC6)cc45)ccc3F)CC2)nc1 [Example 29, 6-(4-(5-((7-(Cyclobutylamino)-4-oxo-3,4-dihydrophthalazin-1-yl)methyl)-2-fluorobenzoyl)piperazin-1-yl)nicotinonitrile] | > 7.30 | 100 to 1000 nM | –
O=C(c1cc(Cc2n[nH]c(=O)c3ccc(OC4CCC4)cc23)ccc1Cl)N1CCN(c2ncc(C(F)(F)F)cn2)CC1 [Example 169, 4-(4-chloro-3-(4-(5-(trifluoromethyl)pyrimidin-2-yl)piperazine-1-carbonyl)benzyl)-6-cyclobutoxyphthalazin-1(2H)-one] | > 7.30 | < 100 nM | –
CC#Cc1ccc2c(=O)[nH]nc(Cc3ccc(F)c(C(=O)N4CC(N(C)c5ccc(C#N)cn5)C4)c3)c2c1 [Example 70, 6-((1-(2-Fluoro-5-((4-oxo-7-(prop-1-yn-1-yl)-3,4-dihydrophthalazin-1-yl)methyl)benzoyl)azetidin-3-yl)(methyl)amino)nicotinonitrile 2,2,2-trifluoroacetate] | < 5.70 | > 5000 nM | –
N#Cc1ccc(N2CCN(C(=O)c3cc(Cc4n[nH]c(=O)c5ccc(NCC(F)(F)F)cc45)ccc3F)CC2)nc1 [Example 22, 6-(4-(2-Fluoro-5-((4-oxo-7-((2,2,2-trifluoroethyl)amino)-3,4-dihydrophthalazin-1-yl)methyl)benzoyl)piperazin-1-yl)nicotinonitrile] | > 7.30 | 1000 to 5000 nM | –
O=C(c1cc(Cc2n[nH]c(=O)c3ccc(OC4CCC4)cc23)ccc1F)N1CCN(C(=O)C2CC2)CC(F)(F)C1 [Example 127, 6-Cyclobutoxy-4-(3-(4-(cyclopropanecarbonyl)-6,6-difluoro-1,4-diazepane-1-carbonyl)-4-fluorobenzyl)phthalazin-1(2H)-one] | > 7.30 | 1000 to 5000 nM | –
CC#Cc1ccc2c(=O)[nH]nc(Cc3ccc(F)c(C(=O)N(C)C4CN(c5ccc(C#N)cn5)C4)c3)c2c1 [Example 201, N-(1-(5-Cyanopyridin-2-yl)azetidin-3-yl)-2-fluoro-N-methyl-5-((4-oxo-7-(prop-1-yn-1-yl)-3,4-dihydrophthalazin-1-yl)methyl)benzamide] | 5.70 to 6.30 | 1000 to 5000 nM | –
N#Cc1ccc(N2CCN(C(=O)c3cc(Cc4n[nH]c(=O)c5ccc(OCC(F)(F)F)cc45)ccc3F)CC2)nc1 [Example 9, 6-(4-(2-Fluoro-5-((4-oxo-7-(2,2,2-trifluoroethoxy)-3,4-dihydrophthalazin-1-yl)methyl)benzoyl)piperazin-1-yl)nicotinonitrile] | > 7.30 | – | 100 to 1000 nM
O=C(c1cc(Cc2n[nH]c(=O)c3ccc(OC4CCC4)cc23)ccc1F)N1CCn2c(nnc2C(F)(F)F)C1 [Example 145, 6-cyclobutoxy-4-(4-fluoro-3-(3-(trifluoromethyl)-5,6,7,8-tetrahydro-[1,2,4]triazolo[4,3-a]pyrazine-7-carbonyl)benzyl)phthalazin-1(2H)-one] | > 7.30 | 1000 to 5000 nM | –
CC#Cc1ccc2c(=O)[nH]nc(Cc3ccc(F)c(C(=O)N4CCn5c(nnc5C5CC5)C4)c3)c2c1 [Example 63, 4-[[3-(3-cyclopropyl-6,8-dihydro-5H-[1,2,4]triazolo[4,3-a]pyrazine-7-carbonyl)-4-fluoro-phenyl]methyl]-6-prop-1-ynyl-2H-phthalazin-1-one] | > 7.30 | > 5000 nM | –
COC1CN(c2ccc3c(=O)[nH]nc(Cc4ccc(F)c(C(=O)N5CCN(c6ccc(C#N)cn6)CC5)c4)c3c2)C1 [Example 11, 6-(4-(2-Fluoro-5-((7-(3-methoxyazetidin-1-yl)-4-oxo-3,4-dihydrophthalazin-1-yl)methyl)benzoyl)piperazin-1-yl)nicotinonitrile] | > 7.30 | – | 100 to 1000 nM
O=C(c1cc(Cc2n[nH]c(=O)c3ccc(OC4CCC4)cc23)ccc1F)N1CCn2c(nnc2C2CC2)C1 [Example 146, 6-cyclobutoxy-4-(3-(3-cyclopropyl-5,6,7,8-tetrahydro-[1,2,4]triazolo[4,3-a]pyrazine-7-carbonyl)-4-fluorobenzyl)phthalazin-1(2H)-one] | > 7.30 | > 5000 nM | –
